Reference: PubChem BioAssay (NCI)
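1) Cells in 96-well plates. 2) Compound, 48 h, 5 concentrations. 3) Linear interpolation between surrounding doses. 4) Unreached endpoint = highest concentration. GI50 is the concentration that inhibits growth by half. TGI: total growth inhibition.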

Legend:
Experiment in all cases: growth of human tumour cells (NCI), 48 h
UACC-62 melanoma = tested on: UACC-62 melanoma
K-562 leukemia = tested on: K-562 leukemia
A549 NSCLC = tested on: A549 NSCLC
HS 578T breast = tested on: HS 578T breast
786-0 renal = tested on: 786-0 renal
HCT-15 colon = tested on: HCT-15 colon
KM12 colon = tested on: KM12 colon
HCC-2998 colon = tested on: HCC-2998 colon
NCI/ADR-RES ovarian = tested on: NCI/ADR-RES ovarian
MCF7 breast = tested on: MCF7 breast
HL-60(TB) leukemia = tested on: HL-60(TB) leukemia
NCI-H226 lung = tested on: NCI-H226 lung
NCI-H460 lung = tested on: NCI-H460 lung
ACHN renal = tested on: ACHN renal
OVCAR-5 ovarian = tested on: OVCAR-5 ovarian
RXF 393 renal = tested on: RXF 393 renal
MDA-MB-231 breast = tested on: MDA-MB-231 breast
SK-MEL-28 melanoma = tested on: SK-MEL-28 melanoma
SK-OV-3 ovarian = tested on: SK-OV-3 ovarian
CCRF-CEM leukemia = tested on: CCRF-CEM leukemia
IGROV1 ovarian = tested on: IGROV1 ovarian
SN12C renal = tested on: SN12C renal
UACC-257 melanoma = tested on: UACC-257 melanoma
NCI-H522 lung = tested on: NCI-H522 lung
SNB-19 CNS = tested on: SNB-19 CNS
HOP-62 NSCLC = tested on: HOP-62 NSCLC
M14 melanoma = tested on: M14 melanoma
SF-268 CNS = tested on: SF-268 CNS
OVCAR-4 ovarian = tested on: OVCAR-4 ovarian
A498 renal = tested on: A498 renal
SK-MEL-5 melanoma = tested on: SK-MEL-5 melanoma
SK-MEL-2 melanoma = tested on: SK-MEL-2 melanoma
OVCAR-3 ovarian = tested on: OVCAR-3 ovarian
PC-3 prostate = tested on: PC-3 prostate
BT-549 breast = tested on: BT-549 breast
HOP-92 NSCLC = tested on: HOP-92 NSCLC
NCI-H23 lung = tested on: NCI-H23 lung
SR leukemia = tested on: SR leukemia
OVCAR-8 ovarian = tested on: OVCAR-8 ovarian
U251 CNS = tested on: U251 CNS
DU-145 prostate = tested on: DU-145 prostate
SW-620 colon = tested on: SW-620 colon
HT29 colon = tested on: HT29 colon
LOX IMVI melanoma = tested on: LOX IMVI melanoma
T-47D breast = tested on: T-47D breast
UO-31 renal = tested on: UO-31 renal
SNB-75 CNS = tested on: SNB-75 CNS
EKVX NSCLC = tested on: EKVX NSCLC
HCT-116 colon = tested on: HCT-116 colon
SF-539 CNS = tested on: SF-539 CNS
MOLT-4 leukemia = tested on: MOLT-4 leukemia
MDA-MB-435 = tested on: MDA-MB-435
RPMI-8226 leukemia = tested on: RPMI-8226 leukemia
COLO 205 colon = tested on: COLO 205 colon
SF-295 CNS = tested on: SF-295 CNS
CAKI-1 renal = tested on: CAKI-1 renal
MALME-3M melanoma = tested on: MALME-3M melanoma
TK-10 renal = tested on: TK-10 renal

CCN(CC)c1ccc(/C=C/c2cc(C)c3ccccc3n2)cc1
GI50 (UACC-62 melanoma): 3.31 µM | TGI (UACC-62 melanoma): 22.6 µM | GI50 (K-562 leukemia): 0.64 µM | TGI (K-562 leukemia): 15 µM | GI50 (A549 NSCLC): 3.99 µM | TGI (A549 NSCLC): > 100 µM | GI50 (HS 578T breast): 2.09 µM | TGI (HS 578T breast): 5.75 µM | GI50 (786-0 renal): 4.51 µM | TGI (786-0 renal): 16.2 µM | GI50 (HCT-15 colon): 2.27 µM | TGI (HCT-15 colon): 26.4 µM | GI50 (KM12 colon): 2.31 µM | TGI (KM12 colon): 13.2 µM | GI50 (HCC-2998 colon): 4.11 µM | TGI (HCC-2998 colon): 81.1 µM | GI50 (NCI/ADR-RES ovarian): 1.93 µM | TGI (NCI/ADR-RES ovarian): 16.3 µM | GI50 (MCF7 breast): 2.31 µM | TGI (MCF7 breast): 75.8 µM | GI50 (HL-60(TB) leukemia): 3.42 µM | TGI (HL-60(TB) leukemia): 27.8 µM | GI50 (NCI-H226 lung): 11.9 µM | TGI (NCI-H226 lung): 91.3 µM | GI50 (NCI-H460 lung): 3 µM | TGI (NCI-H460 lung): 11.7 µM | GI50 (ACHN renal): 6.12 µM | TGI (ACHN renal): > 100 µM | GI50 (OVCAR-5 ovarian): 7.09 µM | TGI (OVCAR-5 ovarian): 75.3 µM | GI50 (RXF 393 renal): 3.43 µM | TGI (RXF 393 renal): 9.44 µM | GI50 (MDA-MB-231 breast): 3.54 µM | TGI (MDA-MB-231 breast): 13.3 µM | GI50 (SK-MEL-28 melanoma): 6.75 µM | TGI (SK-MEL-28 melanoma): > 100 µM | GI50 (SK-OV-3 ovarian): 3.41 µM | TGI (SK-OV-3 ovarian): 17.8 µM | GI50 (CCRF-CEM leukemia): 2.85 µM | TGI (CCRF-CEM leukemia): 87.8 µM | GI50 (IGROV1 ovarian): 2.81 µM | TGI (IGROV1 ovarian): 25.7 µM | GI50 (SN12C renal): 7.27 µM | TGI (SN12C renal): > 100 µM | GI50 (UACC-257 melanoma): 5.18 µM | TGI (UACC-257 melanoma): 42.8 µM | GI50 (NCI-H522 lung): 1.31 µM | TGI (NCI-H522 lung): 3.91 µM | GI50 (SNB-19 CNS): 5.92 µM | TGI (SNB-19 CNS): > 100 µM | GI50 (HOP-62 NSCLC): 4.6 µM | TGI (HOP-62 NSCLC): 34.7 µM | GI50 (M14 melanoma): 3.42 µM | TGI (M14 melanoma): 13.6 µM | GI50 (SF-268 CNS): 5.46 µM | TGI (SF-268 CNS): 74.4 µM | GI50 (OVCAR-4 ovarian): 8.37 µM | TGI (OVCAR-4 ovarian): > 100 µM | GI50 (A498 renal): 2.32 µM | TGI (A498 renal): 15.4 µM | GI50 (SK-MEL-5 melanoma): 3.1 µM | TGI (SK-MEL-5 melanoma): 11.8 µM | GI50 (SK-MEL-2 melanoma): 2.61 µM | TGI (SK-MEL-2 melanoma): 6.78 µM | GI50 (OVCAR-3 ovarian): 1.82 µM | TGI (OVCAR-3 ovarian): 4.78 µM | GI50 (PC-3 prostate): 4.84 µM | TGI (PC-3 prostate): > 100 µM | GI50 (BT-549 breast): 10.3 µM | TGI (BT-549 breast): 62.9 µM | GI50 (HOP-92 NSCLC): 3.63 µM | TGI (HOP-92 NSCLC): 22.9 µM | GI50 (NCI-H23 lung): 3.43 µM | TGI (NCI-H23 lung): 39.3 µM | GI50 (SR leukemia): 1.53 µM | TGI (SR leukemia): 12.1 µM | GI50 (OVCAR-8 ovarian): 4.64 µM | TGI (OVCAR-8 ovarian): 55.8 µM | GI50 (U251 CNS): 2.36 µM | TGI (U251 CNS): 21.1 µM | GI50 (DU-145 prostate): 3.43 µM | TGI (DU-145 prostate): 15.3 µM | GI50 (SW-620 colon): 1.87 µM | TGI (SW-620 colon): 9.21 µM | GI50 (HT29 colon): 2.41 µM | TGI (HT29 colon): 7.39 µM | GI50 (LOX IMVI melanoma): 4.67 µM | TGI (LOX IMVI melanoma): 28.1 µM | GI50 (T-47D breast): 4.46 µM | TGI (T-47D breast): > 100 µM | GI50 (UO-31 renal): 3.18 µM | TGI (UO-31 renal): 15 µM | GI50 (SNB-75 CNS): 3.09 µM | TGI (SNB-75 CNS): 9.4 µM | GI50 (EKVX NSCLC): 4.95 µM | TGI (EKVX NSCLC): 44.9 µM | GI50 (HCT-116 colon): 4.06 µM | TGI (HCT-116 colon): 16.4 µM | GI50 (SF-539 CNS): 3.2 µM | TGI (SF-539 CNS): 9.61 µM | GI50 (MOLT-4 leukemia): 4.07 µM | TGI (MOLT-4 leukemia): 43.1 µM | GI50 (MDA-MB-435): 0.328 µM | TGI (MDA-MB-435): 1.9 µM | GI50 (RPMI-8226 leukemia): 3.11 µM | TGI (RPMI-8226 leukemia): 11.3 µM | GI50 (COLO 205 colon): 2.14 µM | TGI (COLO 205 colon): 5.23 µM | GI50 (SF-295 CNS): 1.8 µM | TGI (SF-295 CNS): 5.72 µM | GI50 (CAKI-1 renal): 1.93 µM | TGI (CAKI-1 renal): 13.4 µM | GI50 (MALME-3M melanoma): 3.39 µM | TGI (MALME-3M melanoma): 22.8 µM | GI50 (TK-10 renal): 4.47 µM | TGI (TK-10 renal): 13.8 µM
